Patent publication US5721107A, “Antibodies to G protein coupled glutamate receptors” (priority 1995, dated 1998)
Where two headings read alike, the source gives them in different places.

Tests used:
[1] = tested on: glutamate G protein coupled receptor; assay: Voltage-clamp assay of injected oocytes, inhibition of glutamic acid-evoked current by putative antagonist; type: cell-based, rat; details: antagonist 1 mM
Procedure: Voltage clamp assays were also carried out on injected oocytes to measure the inhibition by the putative glutamate G protein coupled receptor antagonist, 2-amino-3-phosphonopropionic acid (AP3).

[2] = target: T1, GluG R encoded by clone 45-A (Rattus norvegicus, UniProt P23385); type: cell-based; details: normalized to 100 μM L-glutamate
T1 construct: expressed in transfected cells; host or cells: Xenopus oocytes injected with in vitro transcribed RNA of clone 45-A (cDNA in pVEGT')

[3] = tested on: GluG R; assay: Voltage-clamp response to quisqualate of oocytes injected with RNA from a subfractionated rat cerebellum cDNA library pool; type: cell-based; details: RNA from subfractionated pool of 14,000 colonies; approximately 100 ng RNA per oocyte; estimated from digital panel meter
Procedure: Plasmid DNA from plates 25 to 32 were cesium chloride banded and transcribed into RNA as described above along with the positive parent pool Z99-25-32. Oocytes were injected with the RNA and voltage clamp assays, carried out as described above, identified pools Z104-25 and Z111-32 as being weakly positive, Z106-27 and Z109-30 as intermediately positive, and Z108-29 and Z110-31 as the most positive. The pool resulting in Z110-31 was chosen for further subdivision.
To confirm the result, plasmid DNA from clone #45 was prepared, transcribed and assayed in oocytes as described above. […] FIG. 2 illustrates the data taken from voltage-clamp recordings at several stages in the subfractionation of the cerebellum library. […] The peak current was truncated by the chart recorder, but the actual peak current (estimated from a digital panel meter) was approximately 1300 nA.

[4] = tested on: rat G protein coupled glutamate receptor; assay: Competition of tritiated glutamic acid binding to membrane preparations of transfected BHK cells; details: plus and minus quisqualate, 30 minutes, room temperature
Procedure: Transfected cell lines expressing GluG R were identified by the binding of ^3 H-glutamate to membrane preparations from transfected cells. Cell lines expressing low to moderate levels of GluG R are used to set up functional screening assays.
Clones of BHK 570 and BHK TK^- ts13 cells expressing the rat G protein coupled glutamate receptor cDNA were plated in two or three 150 mm maxi-plates culture dishes and were grown to confluency. The cells from each plate were scraped in 5 ml of PBS (phosphate buffered saline, Sigma Chemical Co., St. Louis, Mo.), which was pre-chilled to 4° C. The cells were removed to a chilled centrifuged tube, and the plates were each rinsed with 5 ml of chilled PBS and pooled with the cells. The chilled tubes were spun at 1,000 rpm for two minutes, and the supernatant was discarded. The cells were frozen at either -70° C. or on dry ice. In some cases, the cells were left overnight at -70° C. […] The filters were dried in a microwave oven and counted in a […].
Protein determinations were carried out using a Coomassie Blue-based assay from Pierce Chemical Company (Rockford, Ill.) under conditions set forth by the manufacturer. One hundred microliters of undiluted cell homogenate or BSA standard was added to 2 ml of reagent and the optical density was measured at 595 nm. […]

[5] = 100 μM, saturating concentration

T1 sequence (P23385 33-1199): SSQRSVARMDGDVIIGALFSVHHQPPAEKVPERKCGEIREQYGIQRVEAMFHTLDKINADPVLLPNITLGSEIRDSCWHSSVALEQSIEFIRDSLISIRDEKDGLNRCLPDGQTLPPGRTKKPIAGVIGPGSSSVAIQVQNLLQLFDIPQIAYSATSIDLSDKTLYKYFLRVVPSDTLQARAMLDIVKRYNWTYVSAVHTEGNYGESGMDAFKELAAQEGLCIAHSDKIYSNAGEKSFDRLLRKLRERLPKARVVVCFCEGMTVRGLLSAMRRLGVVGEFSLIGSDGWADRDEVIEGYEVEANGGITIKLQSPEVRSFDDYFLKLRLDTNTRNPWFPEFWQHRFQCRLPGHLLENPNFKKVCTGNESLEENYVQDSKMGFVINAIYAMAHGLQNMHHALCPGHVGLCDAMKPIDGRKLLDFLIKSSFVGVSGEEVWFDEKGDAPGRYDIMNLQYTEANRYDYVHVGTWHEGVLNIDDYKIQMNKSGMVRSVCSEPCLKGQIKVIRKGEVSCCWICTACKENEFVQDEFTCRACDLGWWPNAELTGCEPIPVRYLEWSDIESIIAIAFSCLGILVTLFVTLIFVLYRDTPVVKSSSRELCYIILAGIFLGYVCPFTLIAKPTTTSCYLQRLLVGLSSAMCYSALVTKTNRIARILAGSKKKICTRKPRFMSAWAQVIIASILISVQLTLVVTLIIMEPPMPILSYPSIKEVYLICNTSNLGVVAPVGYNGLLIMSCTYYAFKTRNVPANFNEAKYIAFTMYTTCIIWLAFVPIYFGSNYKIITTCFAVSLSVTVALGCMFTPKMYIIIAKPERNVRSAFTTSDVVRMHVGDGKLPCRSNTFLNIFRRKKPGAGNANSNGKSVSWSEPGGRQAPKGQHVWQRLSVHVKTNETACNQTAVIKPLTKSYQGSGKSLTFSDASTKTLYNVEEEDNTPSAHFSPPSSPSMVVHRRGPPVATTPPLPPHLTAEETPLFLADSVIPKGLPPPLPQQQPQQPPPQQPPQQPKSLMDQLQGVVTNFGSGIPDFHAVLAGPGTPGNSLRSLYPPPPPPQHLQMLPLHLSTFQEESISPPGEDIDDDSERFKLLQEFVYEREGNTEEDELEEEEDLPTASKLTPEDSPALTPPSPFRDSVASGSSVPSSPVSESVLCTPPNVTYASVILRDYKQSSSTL

NC(CP(=O)(O)O)C(=O)O (racemic) [DL-AP3, 2-amino-3-phosphonopropionic acid]
current evoked by 10 μM glutamic acid, reduced to % of the control [1]: 59.3±7.3 % of the control

Cc1onc(O)c1CC(N)C(=O)O (stereo not drawn) [AMPA, α-amino-3-hydroxy-5-methyl-isoxazole-4-propionic acid]
response of oocytes to L-glutamic acid analog (effectiveness) [2, 5]: ineffective

NC(CCP(=O)(O)O)C(=O)O (centres unmarked) [APB, 2-amino-4-phosphonobytyric acid]
response of oocytes to L-glutamic acid analog (effectiveness) [2, 5]: ineffective

CN[C@H](CC(=O)O)C(=O)O [NMDA, N-methyl-D-aspartic acid]
response of oocytes to L-glutamic acid analog (effectiveness) ([2]; 100 μM NMDA+10 μM glycine): ineffective

N[C@@H](Cn1oc(=O)[nH]c1=O)C(=O)O [Quisqualic acid, quisqualic acid]
peak current in response to quisqualate [3]: approximately 1300 nA | competitive binding to glutamate receptor expressed by transfected BHK cells [4]: able to competitively bind the glutamate receptor

N[C@@H](CC(=O)O)C(=O)O [aspartic acid]
response of oocytes to L-glutamic acid analog (effectiveness) ([2]; 1 mM, saturating concentration): ineffective

C=C(C)[C@H]1CN[C@H](C(=O)O)[C@H]1CC(=O)O [kainic acid]
response of oocytes to L-glutamic acid analog (effectiveness) ([2]; 1 mM, saturating concentration): ineffective
